30 compounds from US9981942B2, “Piperidine derivatives having multimodal activity against pain” (LABORATORIOS DEL DR. ESTEVE S.A., priority 2013, dated 2018) can be followed below.

This assay relates to σ1 receptor and the μ-opiod receptor. As to the kind of experiment: μ and σ1 dual binding: combined class from the Ki of both radioligand assays. Set-up: species or system human; key to μ and σ1 dual binding: +: Both Ki-μ and Ki-σ1>=500 nM; ++: One Ki<500 nM while the other Ki is >=500 nM; +++: Both Ki-μ and Ki-σ1<500 nM; ++++: Both Ki-μ and Ki-σ1<100 nM. As to conditions: transfected HEK-293 membranes (σ1), transfected CHO-K1 cell membranes (μ); for μ and σ1 dual binding: combined class for Ki-μ and Ki-σ1. Put shortly:
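Classes combine both Ki values, split at 500 nM and 100 nM. Human μ-opioid binding used 1 nM [3H]-DAMGO on CHO-K1 membranes (27 °C, 60 min, pH 7.4, naloxone 10 μM for NSB); human σ1 used 5 nM [3H](+)-pentazocine on HEK-293 membranes (37 °C, 120 min, pH 8, haloperidol 10 μM for NSB).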

Molecules are shown by their SMILES.

With `CS(=O)(=O)Nc1cccc(C2CCN(Cc3cn([C@H]4c5ccccc5C[C@@H]4O)nn3)CC2)c1` [Example 91, N-(3-(1-((1-((1S,2S)-2-hydroxy-2,3-dihydro-1H-inden-1-yl)-1H-1,2,3-triazol-4-yl)methyl)piperidin-4-yl)phenyl)methanesulfonamide], the “μ and σ1 dual binding” value is “++”.

As for `CS(=O)(=O)Nc1cccc(C2CCN(Cc3cn([C@@H]4c5ccccc5C[C@H]4O)nn3)CC2)c1` [Example 92, N-(3-(1-((1-((1R,2R)-2-hydroxy-2,3-dihydro-1H-inden-1-yl)-1H-1,2,3-triazol-4-yl)methyl)piperidin-4-yl)phenyl)methanesulfonamide], the Ki range for both μ and σ1 (dual-binding class) was less than 0.5 µM. For the compound `Nc1cccc(C2CCN(Cc3cn(-c4ccccc4)nn3)CC2)c1` [Example 94, 3-(1-((1-phenyl-1H-1,2,3-triazol-4-yl)methyl)piperidin-4-yl)aniline], the Ki range for both μ and σ1 (dual-binding class) is less than 0.1 µM. For `CC1(n2cc(CN3CCC(c4cccc(O)c4)CC3)nn2)C(=O)Nc2ccccc21` (stereo not drawn) [Example 95, 3-(4-((4-(3-hydroxyphenyl)piperidin-1-yl)methyl)-1H-1,2,3-triazol-1-yl)-3-methylindolin-2-one], the “μ and σ1 dual binding” value is recorded as “++”. `Oc1cccc(C2CCN(Cc3cn([C@@H]4Cc5ccccc5[C@@H]4O)nn3)CC2)c1` [Example 96, (1S,2R)-2-(4-((4-(3-hydroxyphenyl)piperidin-1-yl)methyl)-1H-1,2,3-triazol-1-yl)-2,3-dihydro-1H-inden-1-ol]: the Ki range for both μ and σ1 (dual-binding class) was less than 0.5 µM.

For the compound `CS(=O)(=O)Nc1cccc(C2CCN(Cc3cn([C@@H]4Cc5ccccc5[C@@H]4O)nn3)CC2)c1` [Example 97, N-(3-(1-((1-((1S,2R)-1-hydroxy-2,3-dihydro-1H-inden-2-yl)-1H-1,2,3-triazol-4-yl)methyl)piperidin-4-yl)phenyl)methanesulfonamide], the “μ and σ1 dual binding” value is recorded as “++”.

`CS(=O)(=O)Nc1cccc(C2CCN(Cc3cn(Cc4ccccn4)nn3)CC2)c1` [Example 98, N-(3-(1-((1-(pyridin-2-ylmethyl)-1H-1,2,3-triazol-4-yl)methyl)piperidin-4-yl)phenyl)methanesulfonamide]: the “μ and σ1 dual binding” value was “++”.

On to `CS(=O)(=O)Nc1cccc(C2CCN(Cc3cn(Cc4cccnc4)nn3)CC2)c1` [Example 99, N-(3-(1-((1-(pyridin-3-ylmethyl)-1H-1,2,3-triazol-4-yl)methyl)piperidin-4-yl)phenyl)methanesulfonamide], for which the “μ and σ1 dual binding” value is “++”.

Take `CS(=O)(=O)Nc1cccc(C2CCN(Cc3cn([C@@H]4Cc5ccccc5[C@H]4O)nn3)CC2)c1` [Example 100, N-(3-(1-((1-((1R,2R)-1-hydroxy-2,3-dihydro-1H-inden-2-yl)-1H-1,2,3-triazol-4-yl)methyl)piperidin-4-yl)phenyl)methanesulfonamide]: the “μ and σ1 dual binding” value is “++”. Regarding `COc1c(NS(C)(=O)=O)cccc1C1CCN(Cc2cn(-c3ccccc3)nn2)CC1` [Example 101, N-(2-methoxy-3-(1-((1-phenyl-1H-1,2,3-triazol-4-yl)methyl)piperidin-4-yl)phenyl)methanesulfonamide], the Ki range for both μ and σ1 (dual-binding class) was less than 0.5 µM. Turning to `COc1c(NS(C)(=O)=O)cccc1C1CCN(Cc2cn(Cc3ccccc3)nn2)CC1` [Example 102, N-(3-(1-((1-benzyl-1H-1,2,3-triazol-4-yl)methyl)piperidin-4-yl)-2-methoxyphenyl)methanesulfonamide], the “μ and σ1 dual binding” value is “++”. On the same count and under the same terms, then `CCC(=O)Nc1cccc(C2CCN(Cc3cn(Cc4ccccn4)nn3)CC2)c1` [Example 103, N-(3-(1-((1-(pyridin-2-ylmethyl)-1H-1,2,3-triazol-4-yl)methyl)piperidin-4-yl)phenyl)propionamide], with “++”; and `CC(C)S(=O)(=O)Nc1cccc(C2CCN(Cc3cn([C@@H]4c5ccccc5C[C@H]4O)nn3)CC2)c1` [Example 104, N-(3-(1-((1-((1R,2R)-2-hydroxy-2,3-dihydro-1H-inden-1-yl)-1H-1,2,3-triazol-4-yl)methyl)piperidin-4-yl)phenyl)propane-2-sulfonamide], with “++”; and `CC(C)S(=O)(=O)Nc1cccc(C2CCN(Cc3cn([C@H]4c5ccccc5C[C@@H]4O)nn3)CC2)c1` [Example 105, N-(3-(1-((1-((1S,2S)-2-hydroxy-2,3-dihydro-1H-inden-1-yl)-1H-1,2,3-triazol-4-yl)methyl)piperidin-4-yl)phenyl)propane-2-sulfonamide], with “++”. On the same count and under the same terms, then `CC(C)(O)COc1ccc(-n2cc(CN3CCC(c4cccc(O)c4)CC3)nn2)cc1` [Example 106, 3-(1-((1-(4-(2-hydroxy-2-methylpropoxy)phenyl)-1H-1,2,3-triazol-4-yl)methyl)piperidin-4-yl)phenol], with “++”. Regarding `Oc1ccc(-n2cc(CN3CCC(c4cccc(O)c4)CC3)nn2)cc1` [Example 107, 3-(1-((1-(4-hydroxyphenyl)-1H-1,2,3-triazol-4-yl)methyl)piperidin-4-yl)phenol], the Ki range for both μ and σ1 (dual-binding class) was less than 0.1 µM. As for `CS(=O)(=O)Nc1cccc([C@@H]2CCN(Cc3cn(-c4ccccc4)nn3)C[C@@H]2O)c1` [Example 110, N-(3-((3R,4S)-3-hydroxy-1-((1-phenyl-1H-1,2,3-triazol-4-yl)methyl)piperidin-4-yl)phenyl)methanesulfonamide], the “μ and σ1 dual binding” value is reported as “++”. For the compound `CCNC(=O)Nc1cccc(C2CCN(Cc3cn(Cc4ccccn4)nn3)CC2)c1` [Example 111, 1-ethyl-3-(3-(1-((1-(pyridin-2-ylmethyl)-1H-1,2,3-triazol-4-yl)methyl)piperidin-4-yl)phenyl)urea], the Ki range for both μ and σ1 (dual-binding class) is no less than 0.5 µM. In the case of `CCS(=O)(=O)Nc1cccc(C2CCN(Cc3cn(Cc4ccccn4)nn3)CC2)c1` [Example 112, N-(3-(1-((1-(pyridin-2-ylmethyl)-1H-1,2,3-triazol-4-yl)methyl)piperidin-4-yl)phenyl)ethanesulfonamide], the “μ and σ1 dual binding” value is “++”. As to `COc1cccc(Cn2cc(CN3CCC(c4cccc(NS(=O)(=O)C(C)C)c4)CC3)nn2)n1` [Example 113], the Ki range for both μ and σ1 (dual-binding class) is less than 0.1 µM. On the same count and under the same terms, with `CC(C)S(=O)(=O)Nc1cccc(C2CCN(Cc3cn(Cc4ncccc4F)nn3)CC2)c1` [Example 114, N-(3-(1-((1-((3-fluoropyridin-2-yl)methyl)-1H-1,2,3-triazol-4-yl)methyl)piperidin-4-yl)phenyl)propane-2-sulfonamide] the figure was less than 0.5 µM; with `CC(C)S(=O)(=O)Nc1cccc(C2CCN(Cc3cn(Cc4cccc(F)n4)nn3)CC2)c1` [Example 116, N-(3-(1-((1-((6-fluoropyridin-2-yl)methyl)-1H-1,2,3-triazol-4-yl)methyl)piperidin-4-yl)phenyl)propane-2-sulfonamide], less than 0.5 µM. Consider `CC(C)S(=O)(=O)Nc1cccc(C2CCN(Cc3cn(Cc4cccc(C(F)(F)F)n4)nn3)CC2)c1` [Example 117, N-(3-(1-((1-((6-(trifluoromethyl)pyridin-2-yl)methyl)-1H-1,2,3-triazol-4-yl)methyl)piperidin-4-yl)phenyl)propane-2-sulfonamide], for which the “μ and σ1 dual binding” value was “++”.

With `Cc1cccc(Cn2cc(CN3CCC(c4cccc(NS(=O)(=O)C(C)C)c4)CC3)nn2)n1` [Example 118, N-(3-(1-((1-((6-methylpyridin-2-yl)methyl)-1H-1,2,3-triazol-4-yl)methyl)piperidin-4-yl)phenyl)propane-2-sulfonamide], the “μ and σ1 dual binding” value was “++”. The same measure, in the same setting: then `CS(=O)(=O)Nc1cccc(C2CCN(Cc3nnn4c3-c3ccccc3C4)CC2)c1` [Example 119, N-(3-(1-((8H-[1,2,3]triazolo[5,1-a]isoindol-3-yl)methyl)piperidin-4-yl)phenyl)methanesulfonamide], with “++”; and `Oc1cccc(C2CCN(Cc3nnn4c3-c3ccccc3C4)CC2)c1` [Example 120, 3-(1-((8H-[1,2,3]triazolo[5,1-a]isoindol-3-yl)methyl)piperidin-4-yl)phenol], with “++”. Turning to `CC(C)S(=O)(=O)Nc1cccc(C2CCN(Cc3cn(Cc4ncccc4C(F)(F)F)nn3)CC2)c1` [Example 121, N-(3-(1-((1-((3-(trifluoromethyl)pyridin-2-yl)methyl)-1H-1,2,3-triazol-4-yl)methyl)piperidin-4-yl)phenyl)propane-2-sulfonamide], the “μ and σ1 dual binding” value is recorded as “++”. On the same count and under the same terms, with `CC(C)S(=O)(=O)Nc1cccc(C2CCN(Cc3cn(Cc4ccc(C(F)(F)F)cn4)nn3)CC2)c1` [Example 122, N-(3-(1-((1-((5-(trifluoromethyl)pyridin-2-yl)methyl)-1H-1,2,3-triazol-4-yl)methyl)piperidin-4-yl)phenyl)propane-2-sulfonamide] the entry was “++”; with `CC(C)S(=O)(=O)Nc1cccc([C@@H]2CCN(Cc3cn(Cc4ccccc4)nn3)C[C@@H]2O)c1` [Example 123, N-(3-((3R,4S)-1-((1-benzyl-1H-1,2,3-triazol-4-yl)methyl)-3-hydroxypiperidin-4-yl)phenyl)propane-2-sulfonamide], “++”.

Take `CC(C)S(=O)(=O)Nc1cccc(C2CCN(Cc3cn(Cc4ccc(C(F)(F)F)nc4)nn3)CC2)c1` [Example 124, N-(3-(1-((1-((6-(trifluoromethyl)pyridin-3-yl)methyl)-1H-1,2,3-triazol-4-yl)methyl)piperidin-4-yl)phenyl)propane-2-sulfonamide]: the “μ and σ1 dual binding” value is reported as “++”.
